Laboratory results taken from ChEMBL document CHEMBL1909046, “DrugMatrix in vitro pharmacology data”.

Columns and labels:
[1] = molecular target: T1, 3-hydroxy-3-methylglutaryl-coenzyme A reductase (Homo sapiens, UniProt P04035); design: species or system Escherichia coli;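 further: enzyme inhibition assay of HMG-CoA reductase using radiolabeled [14C]HMG-CoA as substrate; in other assays of this panel Not Active means under 50% inhibition at 10 µM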
T1 sequence (P04035 whole entry): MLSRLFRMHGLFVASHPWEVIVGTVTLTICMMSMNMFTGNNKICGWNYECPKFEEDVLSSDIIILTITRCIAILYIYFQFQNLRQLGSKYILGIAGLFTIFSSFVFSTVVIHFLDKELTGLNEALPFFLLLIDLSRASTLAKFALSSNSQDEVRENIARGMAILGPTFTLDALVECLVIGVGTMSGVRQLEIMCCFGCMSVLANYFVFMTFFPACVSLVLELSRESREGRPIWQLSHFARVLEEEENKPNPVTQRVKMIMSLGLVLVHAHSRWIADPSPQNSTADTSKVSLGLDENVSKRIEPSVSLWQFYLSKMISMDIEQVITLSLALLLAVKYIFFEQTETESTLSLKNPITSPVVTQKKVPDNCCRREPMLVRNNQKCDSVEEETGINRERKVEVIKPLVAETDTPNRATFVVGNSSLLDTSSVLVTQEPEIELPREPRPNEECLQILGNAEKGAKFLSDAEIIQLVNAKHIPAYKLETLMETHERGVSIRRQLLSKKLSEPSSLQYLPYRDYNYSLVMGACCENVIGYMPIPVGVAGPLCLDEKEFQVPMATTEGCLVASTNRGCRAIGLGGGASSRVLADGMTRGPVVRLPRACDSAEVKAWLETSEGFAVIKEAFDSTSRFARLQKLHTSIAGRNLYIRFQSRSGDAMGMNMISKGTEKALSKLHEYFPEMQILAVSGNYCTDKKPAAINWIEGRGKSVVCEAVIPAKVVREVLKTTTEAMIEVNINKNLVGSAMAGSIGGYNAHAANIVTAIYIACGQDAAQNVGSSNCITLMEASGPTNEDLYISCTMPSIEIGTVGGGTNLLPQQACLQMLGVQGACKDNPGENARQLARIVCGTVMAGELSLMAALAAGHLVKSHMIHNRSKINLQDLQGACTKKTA

[2] = DRUGMATRIX: Calcium Channel Type L, Dihydropyridine radioligand binding (ligand: [3H] Nitrendipine); assay type: cell membranes, Rattus norvegicus, Wistar, Cerebral cortex, Membrane; settings: Not Active = under 50% inhibition at 10 µM
Carbonic anhydrase 2 = Carbonic anhydrase 2 (Homo sapiens, UniProt P00918); test: DRUGMATRIX: Carbonic Anhydrase II enzyme inhibition (substrate: 4-Nitrophenyl acetate (4-NPA)); assay type: tissue-based, Erythrocyte; settings: erythrocyte; Not Active = under 50% inhibition at 10 µM
Cathepsin G = molecular target: T2, Cathepsin G (Homo sapiens, UniProt P08311); test: biochemical; assay type: tissue-based, Neutrophil; settings: neutrophil;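 further: inhibition of Cathepsin G enzyme activity, tested on an AMC-conjugated peptide substrate; in other assays of this panel Not Active means under 50% inhibition at 10 µM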
T2 sequence (P08311 whole entry): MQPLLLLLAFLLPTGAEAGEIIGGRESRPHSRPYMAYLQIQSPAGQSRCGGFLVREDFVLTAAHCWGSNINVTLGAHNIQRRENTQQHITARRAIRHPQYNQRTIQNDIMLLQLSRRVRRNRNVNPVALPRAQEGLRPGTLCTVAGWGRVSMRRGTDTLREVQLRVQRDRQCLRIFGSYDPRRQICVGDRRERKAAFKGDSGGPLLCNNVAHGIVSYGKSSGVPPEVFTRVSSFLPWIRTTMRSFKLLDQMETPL

[3] = DRUGMATRIX: Glutamate, Kainate radioligand binding (ligand: [3H] Kainic acid); assay type: cell membranes, Rattus norvegicus, Wistar, Brain, Membrane; settings: Not Active = under 50% inhibition at 10 µM
Cytochrome P450 2C9 = Cytochrome P450 2C9 (Homo sapiens, UniProt P11712); settings: bti-tn-5b1-4; further: in other assays of this panel Not Active means under 50% inhibition at 10 µM
Cannabinoid receptor 1 = Cannabinoid receptor 1 (Homo sapiens, UniProt P21554); assay type: cell membranes, Chem-1, Membrane; settings: chem-1; further: in other assays of this panel Not Active means under 50% inhibition at 10 µM
Cytochrome P450 1A2 = molecular target: T3, Cytochrome P450 1A2 (Homo sapiens, UniProt P05177); settings: bti-tn-5b1-4; further: in other assays of this panel Not Active means under 50% inhibition at 10 µM
T3 sequence (P05177 whole entry): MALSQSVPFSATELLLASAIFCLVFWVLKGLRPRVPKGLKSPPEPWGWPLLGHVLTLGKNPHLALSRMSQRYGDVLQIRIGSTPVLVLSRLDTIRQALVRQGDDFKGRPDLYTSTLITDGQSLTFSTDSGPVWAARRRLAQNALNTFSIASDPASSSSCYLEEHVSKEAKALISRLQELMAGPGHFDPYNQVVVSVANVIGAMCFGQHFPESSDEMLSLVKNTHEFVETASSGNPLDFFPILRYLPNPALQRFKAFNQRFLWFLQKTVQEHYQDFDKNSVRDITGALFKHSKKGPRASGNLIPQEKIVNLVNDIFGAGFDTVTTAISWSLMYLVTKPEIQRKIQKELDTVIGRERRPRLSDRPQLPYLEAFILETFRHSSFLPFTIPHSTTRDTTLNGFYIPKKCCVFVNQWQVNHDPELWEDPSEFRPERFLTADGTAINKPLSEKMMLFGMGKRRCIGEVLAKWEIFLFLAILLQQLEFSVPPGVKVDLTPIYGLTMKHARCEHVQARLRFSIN

Chain of Cannabinoid receptor 1 (P21554 whole entry): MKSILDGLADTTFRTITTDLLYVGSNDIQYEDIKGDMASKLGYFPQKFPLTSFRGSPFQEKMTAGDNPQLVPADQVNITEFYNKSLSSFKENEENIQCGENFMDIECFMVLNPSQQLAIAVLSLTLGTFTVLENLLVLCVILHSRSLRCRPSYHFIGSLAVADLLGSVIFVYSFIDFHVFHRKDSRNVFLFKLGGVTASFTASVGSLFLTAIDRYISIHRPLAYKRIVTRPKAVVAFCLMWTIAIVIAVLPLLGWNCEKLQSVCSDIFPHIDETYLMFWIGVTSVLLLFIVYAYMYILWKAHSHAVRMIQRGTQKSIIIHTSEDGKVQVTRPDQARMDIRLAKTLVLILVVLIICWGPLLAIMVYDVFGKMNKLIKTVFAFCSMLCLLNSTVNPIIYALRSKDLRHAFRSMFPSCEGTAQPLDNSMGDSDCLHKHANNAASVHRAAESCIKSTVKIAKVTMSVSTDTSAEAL
Chain of Cytochrome P450 2C9 (P11712 whole entry): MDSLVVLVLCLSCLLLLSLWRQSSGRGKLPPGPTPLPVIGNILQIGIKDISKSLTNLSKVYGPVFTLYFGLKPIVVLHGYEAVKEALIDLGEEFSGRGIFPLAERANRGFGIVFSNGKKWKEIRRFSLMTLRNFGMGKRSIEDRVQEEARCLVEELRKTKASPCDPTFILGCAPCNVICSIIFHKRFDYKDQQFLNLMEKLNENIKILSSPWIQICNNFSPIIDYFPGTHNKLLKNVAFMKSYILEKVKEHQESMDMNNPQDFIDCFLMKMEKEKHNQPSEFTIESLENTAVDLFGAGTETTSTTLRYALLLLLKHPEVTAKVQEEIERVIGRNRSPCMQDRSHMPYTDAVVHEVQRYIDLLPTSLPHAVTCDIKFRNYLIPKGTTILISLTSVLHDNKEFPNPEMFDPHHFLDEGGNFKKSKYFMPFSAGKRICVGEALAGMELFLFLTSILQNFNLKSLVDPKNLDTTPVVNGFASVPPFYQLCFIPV

CO[C@H]1O[C@@H]2O[C@@]3(C)CC[C@H]4[C@H](C)CC[C@@H]([C@H]1C)[C@@]24OO3
Not Active: IC50 [1] | IC50 [2] | Ki [2] | IC50 (Carbonic anhydrase 2) | IC50 (Cathepsin G) | IC50 [3] | Ki [3] | IC50 (Cytochrome P450 2C9) | Ki (Cytochrome P450 2C9) | IC50 (Cannabinoid receptor 1) | IC50 (Cytochrome P450 1A2) | Ki (Cytochrome P450 1A2)

c1ccc2sc(SSc3nc4ccccc4s3)nc2c1 [BENZOTHIAZYL DISULFIDE]
Not Active: IC50 [1] | IC50 [2] | Ki [2] | IC50 (Carbonic anhydrase 2) | IC50 (Cathepsin G) | IC50 [3] | Ki [3] | IC50 (Cytochrome P450 2C9) | Ki (Cytochrome P450 2C9) | IC50 (Cannabinoid receptor 1) | IC50 (Cytochrome P450 1A2) | Ki (Cytochrome P450 1A2)

COc1ccc(C[C@H](N)C(=O)N[C@H]2[C@@H](O)[C@H](n3cnc4c(N(C)C)ncnc43)O[C@@H]2CO)cc1 [PUROMYCIN]
Not Active: IC50 [1] | IC50 [2] | Ki [2] | IC50 (Carbonic anhydrase 2) | IC50 (Cathepsin G) | IC50 [3] | Ki [3] | IC50 (Cytochrome P450 2C9) | Ki (Cytochrome P450 2C9) | IC50 (Cannabinoid receptor 1) | IC50 (Cytochrome P450 1A2) | Ki (Cytochrome P450 1A2)

COPPER(II) OXIDE
Not Active: IC50 [1] | Ki [1] | IC50 [2] | Ki [2] | IC50 (Carbonic anhydrase 2) | Ki (Carbonic anhydrase 2) | IC50 (Cathepsin G) | Ki (Cathepsin G) | IC50 [3] | Ki [3] | IC50 (Cytochrome P450 2C9) | Ki (Cytochrome P450 2C9) | IC50 (Cannabinoid receptor 1) | Ki (Cannabinoid receptor 1) | IC50 (Cytochrome P450 1A2) | Ki (Cytochrome P450 1A2)

CC12CCC(CC1)C(C)(C)O2 [EUCALYPTOL]
Not Active: IC50 [1] | IC50 [2] | Ki [2] | IC50 (Carbonic anhydrase 2) | IC50 (Cathepsin G) | IC50 [3] | Ki [3] | IC50 (Cytochrome P450 2C9) | Ki (Cytochrome P450 2C9) | IC50 (Cannabinoid receptor 1) | IC50 (Cytochrome P450 1A2) | Ki (Cytochrome P450 1A2)
